# Biological target: butyrylcholinesterase (BuChE)
# Test: modified Ellman photometric anti-cholinesterase assay
# Type: biochemical
compound,measurement,value
"CCC[C@H](O)CCCCCC[C@H]1CCC[C@@H]2N[C@H](C)[C@H](OC(=O)/C=C/SC)C[C@H]12 [compound 1, lepadin I]",IC50,3.1 µM

# Source: publication PMC6486817 (The Journal of organic chemistry, 2018)
